This series is described as follows: Solubility of the cyanate ester monomer in methyl ethyl ketone (MEK). The class given is physicochemical. Conditions: 25° C.

Where only a bound is given, the exact number is not on record here.

In the case of `CC12CC3(C)CC(c4ccc(OC#N)cc4)(C1)CC(c1ccc(OC#N)cc1)(C2)C3` [AMTCN, 1,3-Bis(4-Cyanatophenyl)-5,7-Dimethyladamantane], the “amount that could be dissolved in methyl ethyl ketone (MEK)” value was not below 50 % by mass.
The same measure for `Cc1cc(C23CC4(C)CC(C)(C2)CC(c2ccc(OC#N)c(C)c2)(C4)C3)ccc1OC#N` [AMTcCN, 1,3-Bis(3-Methyl-4-Cyanatophenyl)-5,7-Dimethyladamantane]: not below 50 % by mass.

These data come from patent US9949369B2, “Cyanate ester compound, curable resin composition containing the same, and hardened product thereof” (MITSUBISHI GAS CHEMICAL COMPANY, INC., priority 2013, dated 2018).
